Results reported in PMC8968852, “A New Spectral Shift-Based Method to Characterize Molecular Interactions” (Assay and Drug Development Technologies, 2022).
Where two headings read alike, the source gives them in different places.

Experiments:
[1] = test system: Cy5-labeled 13-mer (5′ Cy5 TTT GGA CTT CAG G 3′); experiment: Spectral shift DNA hybridization and van't Hoff analysis; type: binding
Protocol: Chemically synthesized DNA oligonucleotides were obtained from Metabion GmbH (Planegg, Germany). A Cy5-labeled 13-mer including a short poly-T spacer in front of a 10 base-long recognition sequence (sequence 5′ Cy5 TTT GGA CTT CAG G 3′) was designed as target and a complementary 10-mer (sequence 3′ CCT GAA GTC C 5′) as ligand. All other chemicals and reagents used in this study were of the highest available analytic grade.
All dual-emission spectral shift measurements in this work were performed in coated capillaries (cat# MO-K025; NanoTemper Technologies GmbH) using the Monolith X instrument equipped with dual-emission detection optics (NanoTemper Technologies GmbH). The required volume per data point was 10 μL. Environment-sensitive near-infrared dyes with an emission maximum at around 660 nm (e.g., RED 2nd Generation dyes, NanoTemper Technologies GmbH, or Cy5) were used as fluorescent reporters. For each ratiometric reading, the fluorescence was recorded simultaneously at 650 and 670 nm for 5 s (Table 1).
Lyophilized DNA oligonucleotides were resuspended in ddH2O to a concentration of 100 μM. Assay buffer (20 mM sodium phosphate buffer, pH 7.2, 100 mM NaCl, 0.05% TWEEN® 20) was prepared as twofold stock. Cy5-labeled 13-mer was further diluted in twofold assay buffer. Serial dilution of 10-mer was performed in ddH2O. The highest final concentration of 10-mer in the 16-point dilution series was 2 μM and the final concentration of Cy5-labeled 13-mer was 2.5 nM with 20 μL in each sample. For ratiometric fluorescence analysis, the device was adjusted to the desired temperature and samples were incubated for 5 min before starting the measurement. Measurements were performed at 23°C to 37°C in 2°C increments and then repeated in reverse order. Capillaries were sealed with Capillary Sealing Paste (cat# PR-P001; NanoTemper Technologies GmbH) to prevent evaporation.
Ratios of the fluorescence intensities at 670 and 650 nm were calculated automatically within the MO.Control software (NanoTemper Technologies GmbH). For Kd determination, dose–response curves were fitted with a binding model that describes a molecular interaction with a 1:1 stoichiometry according to the law of mass action. In this model, the fraction bound f(cligand) at a given ligand concentration cligand in equilibrium is given as (1) fcligand=cligand+ctarget+Kd−cligand+ctarget+Kd^2−4⋅cligand⋅ctarget/2ctarget
Van't Hoff plots were prepared by plotting the logarithm of the dissociation constant, ln Kd, over the inverse temperature, 1/T. A linear regression was then used to calculate thermodynamic parameters according to (5) ΔH=R⋅slope

GLUT1 = conditions: reported IC50 from cellular assays; cited from earlier work
[2] = molecular target: T1, Carbonic Anhydrase II from bovine erythrocytes (bCA-II) (Bos taurus, UniProt P00921); experiment: biochemical; type: binding
T1 construct: Carbonic Anhydrase II from bovine erythrocytes; purchased Sigma Aldrich C2522; host or cells: bovine erythrocytes
T1 sequence (P00921 whole entry): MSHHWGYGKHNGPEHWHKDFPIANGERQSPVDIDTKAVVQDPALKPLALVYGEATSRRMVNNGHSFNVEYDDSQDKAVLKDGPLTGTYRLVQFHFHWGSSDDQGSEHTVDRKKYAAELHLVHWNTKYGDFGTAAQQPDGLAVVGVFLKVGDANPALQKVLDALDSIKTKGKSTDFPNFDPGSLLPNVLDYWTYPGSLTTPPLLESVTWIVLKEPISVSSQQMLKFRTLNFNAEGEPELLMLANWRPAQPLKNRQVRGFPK

bCA-II [3] = conditions: literature ITC; cited from earlier work
bCA-II [4] = conditions: literature SPR; cited from earlier work
[5] = van't Hoff analysis, 23°C to 37°C

Compound: 3′ CCT GAA GTC C 5′ (DNA CCTGAAGTCC; chemistry not fully specified; listed 3' to 5') [10-mer, chemically synthesized DNA 10-mer complementary to the Cy5-labeled 13-mer target]
- Kd ([1]; 23 °C): 1.77 ± 0.06 nM
- Kd ([1]; 25 °C): 3.35 ± 0.11 nM
- Kd ([1]; 27 °C): 6.52 ± 0.17 nM
- Kd ([1]; 29 °C): 12.8 ± 0.3 nM
- Kd ([1]; 31 °C): 25.4 ± 0.4 nM
- Kd ([1]; 33 °C): 50.4 ± 0.7 nM
- Kd ([1]; 35 °C): 102 ± 2 nM
- Kd ([1]; 37 °C): 198 ± 4 nM
- entropy ΔS [1, 5]: −168.5 cal/mol/K
- van't Hoff enthalpy ΔH [1, 5]: -61.8 kcal/mol

Compound: NS(=O)(=O)c1ccccc1 [Benzenesulfonamide, benzenesulfonamide]
- Kd [2]: 502 ± 67 nM
- 670 nm/650 nm ratio of labeled bCA-II upon inhibitor binding ([2]; final value, without bound inhibitor 0.884): 0.890
- Kd (bCA-II [3]): 839 nM
- Kd (bCA-II [4]): 848 nM
